Source: patent US7741337B2, “Azonafide derivatives, methods for their production and pharmaceutical compositions therefrom” (Unibioscreen S.A., priority 2005, dated 2010)
pIC50: −log10 of the molar value.

Experiments:
[1] = compared with amonafide; U.S. Pat. No. 5,635,506; cited from earlier work
[2] = system: human Myeloma 8226/DOX 40 cell line; conditions: U.S. Pat. No. 5,635,506; cited from earlier work
[3] = system: multidrug resistant tumors; conditions: in vitro; U.S. Pat. No. 5,635,506; cited from earlier work
tumors = conditions: mice; compared with amonafide; U.S. Pat. No. 5,635,506; cited from earlier work
[4] = system: U-373 MG, PC-3 and/or A549 cancer cells; assay: Effect on cell migration, summary of table 3; assay type: cell-based, human; conditions: for migration level of cancer cells: U-373 MG, PC-3 and/or A549 cancer cells at the non-cytotoxic concentrations of this study; for cell migration activity compared with the closest compounds known in the art: comparison drawn from table 3
Description: (§1) Cells of different cancer lines, i.e. U-373 MG (Glioma cancer), PC3 (prostate cancer and A549 (Lung cancer) were seeded on culture flask 48 hours before the migration experiment. On the test day, cells were treated with or without the azonafide derivatives mentioned in table 3 in closed Falcon dishes containing a buffered medium at a controlled temperature (37.0±0.1° C.) for 12 or 22 hours, as noted in the right column of table 3. The azonafide derivatives were used at three non-cytotoxic concentrations (10^−6 M, 10^−7, 10^−8 M). Migration of the cells was observed by means of a CCD-camera mounted on a phase-contrast microscope. Statistical analysis of the migration, with the non-parametric Mann-Whitney test, was established for 25% and 50% of the most motile cells and for the entire cell population.

A549 (Lung cancer) cells = assay: Effect on cell migration, A549; assay type: cell-based; conditions: Homo sapiens, p value in same cell, read-out: Maximum effects (cell migration); for Emax at 0.01 µM / Emax at 0.1 µM: 22 hours on the 25% of most motile cells; for Emax at 0.01 µM: at 10^−8 M; for Emax at 0.1 µM: at 10^−7 M
Description: as §1

[5] = system: human cancer cell lines Hs683, U-373MG, HCT-15, LoVo, A549 and MCF-7; assay: MTT test, effect on overall cell growth (mean of six cell lines, examples 3 to 26); assay type: cell-based; conditions: mean of six cell lines Hs683, U-373MG, A549, MCF-7, 72 hours incubation, range of molar concentrations resulting in 50% inhibition of overall tumor cells growth
Description: (§2) MTT tests were performed in order to rapidly, i.e. within 5 days, measure the effect of azonafide derivatives of this invention on the overall cell growth. The test measures the number of metabolically active living cells that are able to transform the yellow product 3-(4,5-dimethylthiazol-2-yl)-2,5-diphenyl tetrazolium bromide (herein referred as MTT) into the blue product formazan dye by mitochondrial reduction. The amount of formazan obtained at the end of the experiment, measured by means of a spectrophotometer, is directly proportional to the number of living cells. Optical density determination thus enables a quantitative measurement of the effect of the investigated compounds as compared to the control condition (untreated cells) and/or to other reference compounds.
(§3) Height human cancer cell lines described in table 1 were used in the following MTT tests. These cell lines cover six histological cancer types, being prostate, glioma, pancreas, colon, lung and breast cancers. Cells were allowed to grow in 96-well micro-wells with a flat bottom with an amount of 100 μl of cell suspension per well with 1,000 to 4,000 cells/well depending on the cell type used. Each cell line was seeded in a well known MEM 5% serum culture medium.
(§4) The detailed experimental procedure was as following: after a 24-hour period of incubation at 37° C., the culture medium was replaced by 100 μl of fresh medium in which the compound to be tested was dissolved at the following molar concentrations: 10^−9 M, 5.10^−9 M, 10^−8 M, 5.10^−8 M, 10^−7 M, 5.10^−7 M, 10^−6 M, 5.10^−6 M and 10^−5 M. Each experiment was repeated 6 times.
(§5) After 72 hours of incubation at 37° C. with (experimental conditions) or without (control condition) the compound to be tested, the medium was replaced by 100 μl MTT dissolved in RPMI at a concentration of 1 mg/ml. The micro-wells were subsequently incubated during 3 hours at 37° C. and centrifuged at 400 g during 10 minutes. MTT was removed and formazan crystals formed were dissolved in 100 μl DMSO. The micro-wells were shaken for 5 minutes and read on a spectrophotometer at wavelengths of 570 nm (maximum formazan absorbance) and 630 nm (back-ground noise).
(§6) For each experimental condition, the mean optical density was calculated, as well as the percentage of remaining living cells in comparison with the control.
(§7) IC50 values for compounds of examples 3 to 26 were obtained on cell lines Hs683, U-373MG, HCT-15, LoVo, A549 and MCF-7 described in Table 1. IC50 values for compounds from examples 27 to 45 were obtained on cell lines PC3, U-373MG, BxPC3, LoVo, A549 and MCF-7 described in Table 1.

[6] = system: PC3 (prostate cancer) cells; assay: Effect on cell migration, PC3; assay type: cell-based; conditions: Homo sapiens, 22 hours on the 25% of most motile cells, p value in same cell, read-out: Maximum effects (cell migration); for Emax at 0.01 µM: at 10^−8 M; for Emax at 1 µM: at 10^−6 M
Description: as §1

[7] = system: U-373 MG (Glioma cancer) cells; assay: Effect on cell migration, U-373MG; assay type: cell-based; conditions: Homo sapiens, U373 MG, 22 hours on the 25% of most motile cells, p value in same cell, read-out: Maximum effects (cell migration); for Emax at 1 µM: at 10^−6 M
Description: as §1

[8] = system: human cancer cell lines PC3, U-373MG, BxPC3, LoVo, A549 and MCF-7; assay: MTT test, effect on overall cell growth (mean of six cell lines, examples 27 to 45); assay type: cell-based; conditions: mean of six cell lines PC3, U-373MG, A549, MCF-7, 72 hours incubation, range of molar concentrations resulting in 50% inhibition of overall tumor cells growth
Description: as §2, §3, §4, §5, §6, §7

melting point [°C]	SMILES	migration level of cancer cells [4]	cell migration activity compared with the closest compounds known in the art [4]	pIC50 [5]	Emax at 0.01 µM [6] [%]	Emax at 1 µM [7] [%]	Emax at 1 µM [6] [%]	other results
	CN(C)CCN1C(=O)c2cccc3cc4ccccc4c(c23)C1=O [azonafide, 2-[2′-(dimethylamino)ethyl]-1,2-dihydro-3H-dibenz(deh)isoquinoline-1,3-dione]							cardiotoxicity [1]: higher cardiotoxicity than amonafide; cross resistance [2]: possible three-fold cross resistance; anti-tumor activity on multidrug resistant tumors [3]: showed anti-tumor activity; appearance of tumors and tumor growth (tumors): delay the appearance of tumors and to reduce tumor growth in mice with more efficiency than amonafide
225	CN(C)CCN1C(=O)c2cccc3cc4cccc(/N=C\c5cc(O)ccc5O)c4c(c23)C1=O [Example 5, 11-{[(1Z)-(2,5-dihydroxyphenyl)methylidene}amino]-2-[2-(dimethylamino)ethyl]-1H-dibenzo[de,h]isoquinoline-1,3(2H)-dione]	induced a decrease in the migration level	significantly greater cell migration activity than the closest compounds known in the art, or similar cell migration activity at significantly lower concentrations	< 5.00				Emax at 0.01 µM (A549 (Lung cancer) cells): -47%
	CCCCCNC(=O)Nc1cccc2cc3cccc4c3c(c12)C(=O)N(CCN(C)C)C4=O [Example 13, 1-{2-[2-(dimethylamino)ethyl]-1,3-dioxo-2,3-dihydro-1H-dibenzo[de,h]isoquinolin-11-yl}-3-pentylurea]	induced a decrease in the migration level	significantly greater cell migration activity than the closest compounds known in the art, or similar cell migration activity at significantly lower concentrations	5.00 to 5.30	-43			Emax at 0.1 µM ([7]; at 10^−7 M): -24%
	CCCCCCCCOC(=O)Nc1cccc2cc3cccc4c3c(c12)C(=O)N(CCN(C)C)C4=O [Example 25, octyl {2-[2-(dimethylamino)ethyl]-1,3-dioxo-2,3-dihydro-1H-dibenzo[de,h]isoquinolin-11-yl}carbamate]	induced a decrease in the migration level		5.00 to 5.30	-21			Emax at 0.1 µM (A549 (Lung cancer) cells): -28%
	CN(C)CCN1C(=O)c2cccc3cc4c(/N=C/c5ccc6c(c5)OCO6)cccc4c(c23)C1=O [Example 8, 8-{[(1E)-1,3-benzodioxol-5-ylmethylidene]amino}-2-[2-(dimethylamino)ethyl]-1H-dibenzo[de,h]isoquinoline-1,3(2H)-dione]	induced a decrease in the migration level	significantly greater cell migration activity than the closest compounds known in the art, or similar cell migration activity at significantly lower concentrations	5.30 to 6.00	-29	-30		
	CCCCOC(=O)Nc1cccc2cc3cccc4c3c(c12)C(=O)N(CCN(C)C)C4=O [Example 29, n-butyl {2-[2-(dimethylamino)ethyl]-1,3-dioxo-2,3-dihydro-1H-dibenzo[de,h]isoquinolin-11-yl}carbamate]	induced a decrease in the migration level	significantly greater cell migration activity than the closest compounds known in the art, or similar cell migration activity at significantly lower concentrations				-22	Emax at 0.1 µM (A549 (Lung cancer) cells): -33%; pIC50 [8]: < 5.00
198	CN(C)CCN1C(=O)c2cccc3cc4cccc(/N=C\c5ccc6c(c5)OCO6)c4c(c23)C1=O [Example 7, 11-{[(1Z)-1,3-benzodioxol-5-ylmethylidene]amino}-2-[2-(dimethylamino)ethyl]-1H-dibenzo[de,h]isoquinoline-1,3(2H)-dione]	induced a decrease in the migration level		< 5.00				Emax at 1 µM (A549 (Lung cancer) cells; 22 hours on the 100% of cells, at 10^−6 M): -20%
	CN(C)CCN1C(=O)c2cccc3cc4cccc(NC(=S)Nc5ccc(OC(F)(F)F)cc5)c4c(c23)C1=O [Example 31, 1-{2-[2-(dimethylamino)ethyl]-1,3-dioxo-2,3-dihydro-1H-dibenzo[de,h]isoquinolin-11-yl}-3-[4-(trifluoromethoxy)phenyl]thiourea]	induced a decrease in the migration level	significantly greater cell migration activity than the closest compounds known in the art, or similar cell migration activity at significantly lower concentrations			-60	-30	pIC50 [8]: < 5.00
	CN(C)CCN1C(=O)c2cccc3cc4cccc(NC(=O)Cc5ccc(Cl)cc5)c4c(c23)C1=O [Example 11, 2-(4-chlorophenyl)-N-{2-[2-(dimethylamino)ethyl]-1,3-dioxo-2,3-dihydro-1H-dibenzo[de,h]isoquinolin-11-yl}acetamide]	induced a decrease in the migration level	significantly greater cell migration activity than the closest compounds known in the art, or similar cell migration activity at significantly lower concentrations	< 5.00		-18	-37	Emax at 0.1 µM ([6]; at 10^−7 M): -27%

SMILES	melting point [°C]	migration level of cancer cells [4]	cell migration activity compared with the closest compounds known in the art [4]	pIC50 [5]	Emax at 0.01 µM [6] [%]	Emax at 1 µM [7] [%]	Emax at 1 µM [6] [%]	other results
CN(C)CCN1C(=O)c2cccc3cc4c(N=Cc5cc(O)ccc5O)cccc4c(c23)C1=O (stereo in doubt) [Example 6, 8-{[(1Z)-(2,5-dihydroxyphenyl)methylidene]amino}-2-[2-(dimethylamino)ethyl]-1H-dibenzo[de,h]isoquinoline-1,3(2H)-dione]	205	induced a decrease in the migration level	significantly greater cell migration activity than the closest compounds known in the art, or similar cell migration activity at significantly lower concentrations	5.30 to 6.00	-24			Emax at 0.01 µM (A549 (Lung cancer) cells): -29%
